Measurements published in ChEMBL document CHEMBL4706720, “Pyrrolidine Compounds as Potential Lipid-Lowering Therapeutic in Cardiovascular Disease” (ACS Med Chem Lett, 2021).

Assay: Inhibition of lipoprotein(a) assembly from Apo(a) and LDL particle in human HepG2 and HEK293 combined conditioned media incubated for 2 hrs by sandwich ELISA

Row | Compound | IC50 [nM]
1 | O=C(O)[C@@H](Cc1cccc(Oc2cccc(C[C@H](C(=O)O)[C@H]3CCNC3)c2)c1)[C@H]1CCNC1 | 0.372
2 | O=C(O)[C@@H](Cc1cccc(S(=O)(=O)c2cccc(C[C@H](C(=O)O)[C@H]3CCNC3)c2)c1)[C@H]1CCNC1 | 0.235
3 | O=C(O)[C@@H](Cc1cccc(Sc2cccc(C[C@H](C(=O)O)[C@H]3CCNC3)c2)c1)[C@H]1CCNC1 | 0.36
4 | O=C(O)[C@@H](Cc1cccc(NS(=O)(=O)Nc2cccc(C[C@H](C(=O)O)[C@H]3CCNC3)c2)c1)[C@H]1CCNC1 | 0.563
5 | O=C(O)[C@@H](Cc1cccc(OCCOc2cccc(C[C@H](C(=O)O)[C@H]3CCNC3)c2)c1)[C@H]1CCNC1 | 0.288
6 | O=C(O)[C@@H](Cc1cccc(Nc2cccc(C[C@H](C(=O)O)[C@H]3CCNC3)c2)c1)[C@H]1CCNC1 | 0.348

Continued, values first:

Row | IC50 [nM] | Compound
7 | 0.0963 | O=C(O)[C@@H](Cc1cccc(CN(Cc2cccc(C[C@H](C(=O)O)[C@H]3CCNC3)c2)Cc2cccc(C[C@H](C(=O)O)[C@H]3CCNC3)c2)c1)[C@H]1CCNC1
8 | 0.108 | CC(Cc1cccc(CN(Cc2cccc(CC(C)(C(=O)O)[C@H]3CCNC3)c2)Cc2cccc(CC(C)(C(=O)O)[C@H]3CCNC3)c2)c1)(C(=O)O)[C@H]1CCNC1 (some centres not stated)
9 | 0.934 | O=C(O)[C@@H](Cc1cccc(CNCc2cccc(C[C@H](C(=O)O)[C@H]3CCNC3)c2)c1)[C@H]1CCNC1
10 | 0.396 | O=C(O)[C@@H](Cc1cccc([S+]([O-])c2cccc(C[C@H](C(=O)O)[C@H]3CCNC3)c2)c1)[C@H]1CCNC1
11 | 0.359 | O=C(O)[C@@H](Cc1cccc(COc2cccc(C[C@H](C(=O)O)[C@H]3CCNC3)c2)c1)[C@H]1CCNC1
12 | 0.17 | COc1cc(F)cc(CN(Cc2cccc(C[C@H](C(=O)O)[C@H]3CCNC3)c2)Cc2cccc(C[C@H](C(=O)O)[C@H]3CCNC3)c2)c1
